Results from publication PMC9411606, “Control cell migration by engineering integrin ligand assembly” (Nature Communications, 2022).

Experiment: Circular dichroism (CD) spectroscopy of peptide assemblies
Type: physicochemical
Details: 100 µM, aqueous, 0.5 mm path
Protocol: CD spectra of the peptide assemblies in aqueous solutions were recorded under the nitrogen atmosphere using a spectrophotometer JASCO J-820 (Jasco, Japan). A quartz cuvette with 0.5 mm path length was used as a sample container. Continuous scanning mode is applied. And each sample is scanned three times to obtain an averaged spectrum.

With “FFIKLLI [candidate assembling ligand, FF coupled to N-terminus of IKLLI]” the “secondary structure of self-assembly” value was “β-sheet structure”.

For “FIKLLI [candidate assembling ligand, F coupled to N-terminus of IKLLI]”, the “secondary structure of self-assembly” value was “random coil structure”.
